Test results: patent US8999966B2, “Compounds that are ERK inhibitors” (Merck Sharp & Dohme Corp., priority 2010, dated 2015)

Target: fully phosphorylated, active Mouse ERK2 protein (Mus musculus, UniProt P63085)
Test: Active ERK2 assay (AERK2), IMAP format
Type: biochemical
Settings: activated ERK2, IMAP fluorescence polarization, 30 μM ATP
Description: 14 μl of kinase buffer (10 mM Tris.HCl pH 7.2, 10 mM MgCl2, 0.01% Tween-20, 1 mM DTT) containing 0.4 ng unphosphorylated Mouse ERK2 protein can be added to each well of a black 384-well assay plate. […] DMSO concentration during initial incubation is 6.7%. ERK2 activity can be determined to be insensitive to DMSO concentrations up to 20%. ERK2 can then be activated and it's kinase activity can be measured by the addition of 10 μl kinase buffer with the following components (final concentration per reaction): 2 ng active (phosphorylated) human MEK1 protein and 4 μM (total) ERK2 IMAP substrate peptides (3.9 μM unlabeled IPTTPITTTYFFFK-CONH2 and 100 nM IPTTPITTTYFFFK(5-carboxyfluorescein)-CONH2) and 30 μM ATP. DMSO concentration during ERK activation can be 4%. After one hour, reactions can be terminated by addition of 60 μl IMAP detections beads in binding buffer (Molecular Devices). Binding can be allowed to equilibrate for 30 minutes before reading the plate on an LJL Analyst Fluorescence Polarization plate reader. […] Active compounds can be reconfirmed in an independent assay.
Activated ERK2 activity was also determined in the IMAP assay format using the procedure outlined above. 1 μl of 25× compound was added to 14 μl of kinase buffer containing 0.25 ng fully phosphorylated, active Mouse ERK2 protein. Following a 30 minute incubation, the reactions were initiated by addition of 10 μl of kinase buffer containing 1 μM ERK2 IMAP substrate peptide (0.9 μM unlabeled IPTTPITTTYFFFK-CONH2 and 100 nM IPTTPITTTYFFFK(5-carboxyfluorescein)-CONH2) and 30 μM ATP. Reactions proceeded for 30 minutes before termination by addition of 60 μl IMAP detection beads in binding buffer. Plates were read as above after 30 minute binding equilibration. Active compounds were reconfirmed in an independent assay.

fully phosphorylated, active Mouse ERK2 protein, sequence (P63085 whole entry): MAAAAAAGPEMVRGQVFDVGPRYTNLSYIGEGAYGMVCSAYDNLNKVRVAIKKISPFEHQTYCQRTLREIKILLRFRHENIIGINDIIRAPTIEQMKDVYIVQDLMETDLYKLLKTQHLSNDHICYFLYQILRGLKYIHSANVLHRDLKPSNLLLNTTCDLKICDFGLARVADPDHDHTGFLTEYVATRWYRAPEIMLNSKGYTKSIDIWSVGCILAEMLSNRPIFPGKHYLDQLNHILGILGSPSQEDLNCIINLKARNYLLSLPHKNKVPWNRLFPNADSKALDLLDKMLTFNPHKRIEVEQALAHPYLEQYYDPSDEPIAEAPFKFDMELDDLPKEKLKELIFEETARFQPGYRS

IC50	Compound
> 1000 nM	Cn1c(CN2CCC[C@@H](c3nnc(-c4ccc5[nH]nc(-c6ccc7nccn7c6)c5c4)o3)C2)cc2ccccc21 [Example 329, 3-IMIDAZO[1,2-a]PYRIDIN-6- YL-5-[5-[1-[(1-METHYL-1H- INDOL-2-YL)METHYL]-3(R)- PIPERIDINYL]-1,3,4- OXADIAZOL-2-YL]-1H- INDAZOLE]
0.3 to 10.4 nM	COc1cccc(F)c1CN1CCC[C@@H](c2nnc(-c3ccc4[nH]nc(-c5ccnc(C)c5)c4c3)o2)C1 [Example 336, 5-[5-[1-[(2-FLUORO-6- METHOXYPHENYL)METHYL]- 3(R)-PIPERIDINYL]-1,3,4- OXADIAZOL-2-YL]-3-(2- METHYL-4-PYRIDINYL)-1H- INDAZOLE]
> 1000 nM	CCn1cc(-c2n[nH]c3ccc(-c4nnc([C@@H]5CCCN(Cc6csc7ccccc67)C5)o4)cc23)cn1 [Example 339, 5-[5-[1-(BENZO[b]THIEN-3- YLMETHYL)-3(R)- PIPERIDINYL]-1,3,4- OXADIAZOL-2-YL]-3-(1- ETHYL-1H-PYRAZOL-4-YL)- 1H-INDAZOLE]
> 1000 nM	CCn1cc(-c2n[nH]c3ccc(-c4nnc([C@@H]5CCCN(Cc6cn(C)c7ccccc67)C5)o4)cc23)cn1 [Example 341, 3-(1-ETHYL-1H-PYRAZOL-4- YL)-5-[5-[1-[(1-METHYL-1H- INDOL-3-YL)METHYL]-3(R)- PIPERIDINYL]-1,3,4- OXADIAZOL-2-YL]-1H- INDAZOLE]
> 1000 nM	CCn1cc(-c2n[nH]c3ccc(-c4nnc([C@@H]5CCCN(Cc6cc7ccccc7n6C)C5)o4)cc23)cn1 [Example 342, 3-(1-ETHYL-1H-PYRAZOL-4- YL)-5-[5-[1-[(1-METHYL-1H- INDOL-2-YL)METHYL]-3(R)- PIPERIDINYL]-1,3,4- OXADIAZOL-2-YL]-1H- INDAZOLE]
> 1000 nM	CCn1cc(-c2n[nH]c3ccc(-c4nnc([C@@H]5CCCN(Cc6cc(F)c(Cl)cc6Cl)C5)o4)cc23)cn1 [Example 345, 5-[5-[1-[(2,4-DICHLORO-5- FLUOROPHENYL)METHYL]- 3(R)-PIPERIDINYL]-1,3,4- OXADIAZOL-2-YL]-3-(1- ETHYL-1H-PYRAZOL-4-YL)- 1H-INDAZOLE]
≥ 504 nM	Fc1ccccc1CN1CCC[C@@H](c2nnc(-c3ccc4[nH]nc(-c5ccc6occc6c5)c4c3)o2)C1 [Example 347, 3-(5-BENZOFURANYL)-5-[5- [1-[(2- FLUOROPHENYL)METHYL]- 3(R)-PIPERIDINYL]-1,3,4- OXADIAZOL-2-YL]-1H- INDAZOLE]
> 1000 nM	Fc1cccc(F)c1CN1CCC[C@@H](c2nnc(-c3ccc4[nH]nc(-c5ccc6occc6c5)c4c3)o2)C1 [Example 348, 3-(5-BENZOFURANYL)-5-[5- [1-[(2,6- DIFLUOROPHENYL)METHYL]- 3(R)-PIPERIDINYL]-1,3,4- OXADIAZOL-2-YL]-1H- INDAZOLE]
≥ 504 nM	COc1cccc(F)c1CN1CCC[C@@H](c2nnc(-c3ccc4[nH]nc(-c5ccc6occc6c5)c4c3)o2)C1 [Example 349, 3-(5-BENZOFURANYL)-5-[5- [1-[(2-FLUORO-6- METHOXYPHENYL)METHYL]- 3(R)-PIPERIDINYL]-1,3,4- OXADIAZOL-2-YL]-1H- INDAZOLE]
> 1000 nM	c1ccc2oc(CN3CCC[C@@H](c4nnc(-c5ccc6[nH]nc(-c7ccc8occc8c7)c6c5)o4)C3)cc2c1 [Example 350, 3-(5-BENZOFURANYL)-5-[5- [1-(2- BENZOFURANYLMETHYL)- 3(R)-PIPERIDINYL]-1,3,4- OXADIAZOL-2-YL]-1H- INDAZOLE]
> 1000 nM	c1cc(CN2CCC[C@@H](c3nnc(-c4ccc5[nH]nc(-c6ccc7occc7c6)c5c4)o3)C2)ncn1 [Example 351, 3-(5-BENZOFURANYL)-5-[5- [1-(4- PYRIMIDINYLMETHYL)- 3(R)-PIPERIDINYL]-1,3,4- OXADIAZOL-2-YL]-1H- INDAZOLE]
> 1000 nM	c1cc2cc(-c3n[nH]c4ccc(-c5nnc([C@@H]6CCCN(CC7CCCCC7)C6)o5)cc34)ccc2o1 [Example 352, 3-(5-BENZOFURANYL)-5-[5- [1-(CYCLOHEXYLMETHYL)- 3(R)-PIPERIDINYL]-1,3,4- OXADIAZOL-2-YL]-1H- INDAZOLE]
≥ 504 nM	Fc1ccccc1CN1CCC[C@@H](c2nnc(-c3ccc4[nH]nc(-c5ccnc(Cl)c5)c4c3)o2)C1 [Example 353, 3-(2-CHLORO-4-PYRIDINYL)- 5-[5-[1-[(2- FLUOROPHENYL)METHYL]- 3(R)-PIPERIDINYL]-1,3,4- OXADIAZOL-2-YL]-1H- INDAZOLE]
> 1000 nM	Clc1cc(-c2n[nH]c3ccc(-c4nnc([C@@H]5CCCN(Cc6csc7ccccc67)C5)o4)cc23)ccn1 [Example 354, 5-[5-[1-(BENZO[b]THIEN-3- YLMETHYL)-3(R)- PIPERIDINYL]-1,3,4- OXADIAZOL-2-YL]-3-(2- CHLORO-4-PYRIDINYL)-1H- INDAZOLE]
≥ 504 nM	Clc1cc(-c2n[nH]c3ccc(-c4nnc([C@@H]5CCCN(Cc6cc7ccccc7o6)C5)o4)cc23)ccn1 [Example 357, 5-[5-[1-(2- BENZOFURANYLMETHYL)- 3(R)-PIPERIDINYL]-1,3,4- OXADIAZOL-2-YL]-3-(2- CHLORO-4-PYRIDINYL)-1H- INDAZOLE]
≥ 504 nM	Fc1cc(CN2CCC[C@@H](c3nnc(-c4ccc5[nH]nc(-c6ccnc(Cl)c6)c5c4)o3)C2)c(Cl)cc1Cl [Example 358, 3-(2-CHLORO-4-PYRIDINYL)- 5-[5-[1-[(2,4-DICHLORO-5- FLUOROPHENYL)METHYL]- 3(R)-PIPERIDINYL]-1,3,4- OXADIAZOL-2-YL]-1H- INDAZOLE]
≥ 504 nM	Clc1cc(-c2n[nH]c3ccc(-c4nnc([C@@H]5CCCN(Cc6cc7ccccc7s6)C5)o4)cc23)ccn1 [Example 359, 5-[5-[1-(BENZO[b]THIEN-2- YLMETHYL)-3(R)- PIPERIDINYL]-1,3,4- OXADIAZOL-2-YL]-3-(2- CHLORO-4-PYRIDINYL)-1H- INDAZOLE]
≥ 504 nM	Clc1cc(-c2n[nH]c3ccc(-c4nnc([C@@H]5CCCN(Cc6ccncn6)C5)o4)cc23)ccn1 [Example 360, 3-(2-CHLORO-4-PYRIDINYL)- 5-[5-[1-(4- PYRIMIDINYLMETHYL)- 3(R)-PIPERIDINYL]-1,3,4- OXADIAZOL-2-YL]-1H- INDAZOLE]
≥ 504 nM	COc1cccc(CN2CCC[C@@H](c3nnc(-c4ccc5[nH]nc(-c6ccnc(Cl)c6)c5c4)o3)C2)n1 [Example 361, 3-(2-CHLORO-4-PYRIDINYL)- 5-[5-[1-[(6-METHOXY-2- PYRIDINYL)METHYL]-3(R)- PIPERIDINYL]-1,3,4- OXADIAZOL-2-YL]-1H- INDAZOLE]
≥ 504 nM	Clc1cc(-c2n[nH]c3ccc(-c4nnc([C@@H]5CCCN(CC6CCCCC6)C5)o4)cc23)ccn1 [Example 362, 3-(2-CHLORO-4-PYRIDINYL)- 5-[5-[1- (CYCLOHEXYLMETHYL)- 3(R)-PIPERIDINYL]-1,3,4- OXADIAZOL-2-YL]-1H- INDAZOLE]
> 1000 nM	Fc1cccc(F)c1CN1CCCC(c2ccn(-c3ccc4[nH]nc(-c5ccncc5)c4c3)n2)C1 (stereo not shown) [Example 367, 5-[3-[1-[(2,6- DIFLUOROPHENYL)METHYL]- 3-PIPERIDINYL]-1H- PYRAZOL-1-YL]-3-(4- PYRIDINYL)-1H-INDAZOLE]
> 1000 nM	COc1cccc(F)c1CN1CCCC(c2ccn(-c3ccc4[nH]nc(-c5ccncc5)c4c3)n2)C1 (stereo not shown) [Example 368, 5-[3-[1-[(2-FLUORO-6- METHOXYPHENYL)METHYL]- 3-PIPERIDINYL]-1H- PYRAZOL-1-YL]-3-(4- PYRIDINYL)-1H-INDAZOLE]
